The text below walks through data of ChEMBL document CHEMBL1201862, “PubChem BioAssay data set” (2004).

Some test systems named below: SNB-75; M14; SF-268; RPMI-8226; HCC 2998; NCI-H522; UACC-62; A549; UO-31; MOLT-4; LXFL 529; HT-29; NCI-H460; SF-539; EKVX; BT-549; A498; HOP-92; T47D; DU-145.
Holding throughout (assay): inhibition of tumour cell growth, NCI panel, 48 h

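Growth conditions: 96-well plates. Treatment: test compound, 48 hours, 5 concentrations. Analysis: linear interpolation between bracketing concentrations; unreached endpoints set to highest concentration. GI50 is the concentration that inhibits growth by half.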 The source made the active and inactive calls. No stated cut-off is given here; in the data, active = GI50 up to about 1.1 µM and inactive = higher.

With `COC(=O)c1c(C(=O)OC)c2cc(C(=O)c3ccccc3)ccn2c1Cl`, the GI50 with SNB-75 is 12.9 µM (inactive); with M14 it was 34 µM (inactive); in the experiment on SF-268 it was 43.2 µM (inactive); in the experiment with RPMI-8226 it was 16.3 µM (inactive); in the experiment with HCC 2998, > 100 µM (inactive); with NCI-H522, 19.5 µM (inactive). Besides, the GI50 in the experiment on UACC-62 was 24.9 µM (inactive); with A549, 41.5 µM (inactive); in the experiment on UO-31, 28.2 µM (inactive); in the experiment on MOLT-4 it was 17.7 µM (inactive); with LXFL 529 it was 30 µM (inactive); in the experiment on HT-29, 47.1 µM (inactive). The GI50 is 50 µM (inactive) in the experiment with NCI-H460, 48.6 µM (inactive) with SF-539 and 31 µM (inactive) in the experiment on EKVX.
Take `COC(=O)c1cc2ccc(OC(C)=O)c(OC(C)=O)c2cn1`: the GI50 was 20 µM (inactive) in the experiment on SNB-75; > 10 µM (inactive) in the experiment on BT-549; 14 µM (inactive) in the experiment on A498; 17.1 µM (inactive) in the experiment on HOP-92; 19 µM (inactive) with M14; > 10 µM (inactive) in the experiment on T47D. Besides, the GI50 in the experiment on SF-268 is 20.8 µM (inactive); in the experiment on RPMI-8226, 2.16 µM (inactive); with HCC 2998, 20.8 µM (inactive); in the experiment with NCI-H522 it was 17.4 µM (inactive); with UACC-62, 2.09 µM (inactive); in the experiment with A549 it was 21.2 µM (inactive). The GI50 in the experiment on UO-31 is 15.8 µM (inactive); in the experiment with MOLT-4, 4.12 µM (inactive); with HT-29, 23.9 µM (inactive); with NCI-H460, 21.1 µM (inactive); with SF-539, 19.1 µM (inactive); in the experiment on DU-145 it was 24.7 µM (inactive). Besides, the GI50 in the experiment on EKVX was 22.6 µM (inactive).
Turning to `O=C(O)CC1NCc2cc3ccccc3nc21` (stereo not given), the GI50 in the experiment with SNB-75, in the experiment on BT-549, in the experiment on A498, with HOP-92, in the experiment with M14 and in the experiment with T47D was > 100 µM (inactive) throughout. Also, the GI50 in the experiment with SF-268, with RPMI-8226, in the experiment with HCC 2998, with NCI-H522, in the experiment with UACC-62 and in the experiment with A549 was > 100 µM (inactive) throughout. In addition, the GI50 with UO-31, in the experiment with MOLT-4, with HT-29, in the experiment on NCI-H460, in the experiment with SF-539 and with DU-145 was > 100 µM (inactive) in each case. Moreover, in the experiment on EKVX, the GI50 is 61.9 µM (inactive).
Regarding `O=[N+]([O-])c1ccc2c(c1)N=C1OC(c3c[nH]c4ccc(COc5ccccc5)cc34)C(O)=C1N2` (stereo not given), the GI50 was 25.1 µM (inactive) in the experiment on SNB-75; > 100 µM (inactive) with BT-549; > 100 µM (inactive) with A498; > 100 µM (inactive) in the experiment on HOP-92; > 100 µM (inactive) in the experiment with M14; > 100 µM (inactive) in the experiment on T47D. The GI50 was > 100 µM (inactive) in the experiment on SF-268; > 100 µM (inactive) in the experiment with RPMI-8226; 21.2 µM (inactive) with HCC 2998; 17.3 µM (inactive) with NCI-H522; 52 µM (inactive) in the experiment on UACC-62; > 100 µM (inactive) in the experiment with A549. The GI50 is > 100 µM (inactive) in the experiment with UO-31; 1.82 µM (inactive) in the experiment with MOLT-4; > 100 µM (inactive) in the experiment on HT-29; > 100 µM (inactive) in the experiment on NCI-H460; > 100 µM (inactive) in the experiment on SF-539; > 100 µM (inactive) in the experiment on DU-145. Also, in the experiment with EKVX, the GI50 was > 100 µM (inactive).
As for `CC(=O)NC1=C(NCCN(C)C)C(=O)c2ccccc2C1=O`, the GI50 in the experiment with SNB-75 was 25.5 µM (inactive); in the experiment with M14, 18.4 µM (inactive); in the experiment with SF-268 it was 21.5 µM (inactive); in the experiment on HCC 2998, 14.9 µM (inactive); in the experiment on NCI-H522 it was 10.3 µM (inactive); with UACC-62, 10.5 µM (inactive). Moreover, the GI50 in the experiment on A549 was 15 µM (inactive); with UO-31, > 50 µM (inactive); in the experiment on MOLT-4, 21.9 µM (inactive); in the experiment with LXFL 529 it was 15 µM (inactive); with HT-29, 13.8 µM (inactive); with NCI-H460 it was 12.8 µM (inactive). Besides, the GI50 in the experiment on SF-539 was 11.7 µM (inactive); in the experiment with EKVX it was 32.9 µM (inactive).
With `Cc1nc2ccccc2n1COC(Cn1ccnc1)c1ccc(Cl)cc1Cl` (stereo not given), the GI50 was 53.6 µM (inactive) with SNB-75; 33 µM (inactive) in the experiment with BT-549; > 100 µM (inactive) with A498; 23.3 µM (inactive) in the experiment on HOP-92; > 100 µM (inactive) in the experiment on M14; 41.7 µM (inactive) in the experiment on T47D. Besides, the GI50 is 78.3 µM (inactive) with SF-268; 35.2 µM (inactive) with RPMI-8226; 76 µM (inactive) with HCC 2998; > 100 µM (inactive) with NCI-H522; 56.5 µM (inactive) in the experiment with UACC-62; 72.4 µM (inactive) in the experiment with A549. The GI50 in the experiment on UO-31 was 25.6 µM (inactive); in the experiment on MOLT-4, 30.1 µM (inactive); with HT-29, 62.2 µM (inactive); in the experiment on NCI-H460 it was 15.3 µM (inactive); with SF-539, > 100 µM (inactive); in the experiment on DU-145, > 100 µM (inactive). The GI50 in the experiment with EKVX is 7.1 µM (inactive).
With `O=[N+]([O-])c1ccc(Sc2c3ccccc3nc3ccccc23)cc1`, the GI50 with SNB-75 is > 100 µM (inactive); in the experiment with M14, > 100 µM (inactive); in the experiment on SF-268, > 100 µM (inactive); with RPMI-8226, > 100 µM (inactive); in the experiment with HCC 2998, > 100 µM (inactive); in the experiment with NCI-H522, 74.1 µM (inactive). Also, the GI50 with UACC-62, in the experiment with A549, in the experiment with UO-31, in the experiment with MOLT-4, in the experiment with LXFL 529 and in the experiment on HT-29 was > 100 µM (inactive) each time. Also, the GI50 in the experiment with NCI-H460, with SF-539 and in the experiment with EKVX was > 100 µM (inactive) throughout.
Turning to `CSCCC(N)C(=O)NCCNc1ccc(NCCNC(=O)C(N)CCSC)c2c1C(=O)c1ccccc1C2=O` (stereo not given), the GI50 with SNB-75 is 1.57 µM (inactive); with BT-549 it was 1.48 µM (inactive); with A498, 1.72 µM (inactive); in the experiment with HOP-92, 1.1 µM (active); in the experiment on M14, 3.38 µM (inactive); in the experiment with T47D, 2.5 µM (inactive). For the same compound, the GI50 with SF-268 is 0.659 µM (active); with RPMI-8226 it was 1.35 µM (inactive); with HCC 2998 it was 0.716 µM (active); in the experiment on NCI-H522 it was 0.199 µM (active); in the experiment on UACC-62 it was 1.23 µM (inactive); with A549, 0.579 µM (active). The GI50 was 1.41 µM (inactive) in the experiment on UO-31; 0.123 µM (active) in the experiment with MOLT-4; 0.535 µM (active) in the experiment with HT-29; 0.351 µM (active) in the experiment with NCI-H460; 0.973 µM (active) with SF-539; 0.798 µM (active) in the experiment with DU-145. The GI50 in the experiment with EKVX is 2.46 µM (inactive).
Turning to `Cc1cc(N(CCC#N)CCC#N)ccc1/N=N/c1ccc(Br)cc1`, the GI50 in the experiment with A498 is 13.7 µM (inactive); with M14, 9.02 µM (inactive); with SF-268, 22.3 µM (inactive); with RPMI-8226, > 45.9 µM (inactive); in the experiment with HCC 2998, > 27 µM (inactive); in the experiment with NCI-H522, 16.6 µM (inactive). For the same compound, the GI50 with UACC-62 was 9.31 µM (inactive); with A549, 15.1 µM (inactive); in the experiment with UO-31, 27.7 µM (inactive); in the experiment on MOLT-4 it was 19.3 µM (inactive); with LXFL 529, > 48.8 µM (inactive); with HT-29, > 100 µM (inactive). Moreover, the figures for the GI50 in the experiment on NCI-H460, with SF-539 and with EKVX were > 100 µM (inactive), 17.8 µM (inactive) and 26.8 µM (inactive), respectively.
As to `O=C1/C(=C/c2ccccc2)CN(C(=O)C(F)(F)F)C/C1=C\c1ccccc1`, the GI50 in the experiment with SNB-75 was 6.58 µM (inactive); with A498, 1.98 µM (inactive); with M14 it was 1.61 µM (inactive); in the experiment with SF-268 it was 3.94 µM (inactive); in the experiment on RPMI-8226, 0.165 µM (active); in the experiment with NCI-H522, 2.74 µM (inactive). The GI50 was 1.84 µM (inactive) in the experiment on UACC-62; 3.17 µM (inactive) in the experiment on A549; 2.18 µM (inactive) with UO-31; 3.06 µM (inactive) in the experiment with MOLT-4; 1.66 µM (inactive) in the experiment on LXFL 529; 1.3 µM (inactive) in the experiment with HT-29. For the same compound, the GI50 in the experiment with NCI-H460 is 1.56 µM (inactive); with SF-539 it was 1.86 µM (inactive); in the experiment on EKVX, > 10 µM (inactive).
Turning to `C=CC1C(OC2OC(CO)C(O)C(O)C2O)OC=C(C(=O)OC)C1CC=O` (stereo not given), the GI50 in the experiment on SNB-75, with A498, in the experiment on M14, in the experiment with SF-268, in the experiment on RPMI-8226 and in the experiment with UACC-62 was > 100 µM (inactive) throughout. Further, the GI50 in the experiment on A549, with UO-31, with MOLT-4, with LXFL 529, in the experiment with SF-539 and in the experiment with EKVX was > 100 µM (inactive) each time.
As to `O=C(/C=C/c1ccc(/C=C/C(=O)c2ccc(O)cc2)cc1)c1ccc(O)cc1`, the GI50 in the experiment with SNB-75, with BT-549, in the experiment with A498, in the experiment with HOP-92, with M14 and in the experiment on T47D was > 100 µM (inactive) each time. The GI50 in the experiment with SF-268 is > 100 µM (inactive); in the experiment on RPMI-8226, > 100 µM (inactive); with HCC 2998, > 100 µM (inactive); in the experiment on NCI-H522 it was > 10 µM (inactive); in the experiment with UACC-62 it was > 100 µM (inactive); in the experiment with A549, > 100 µM (inactive). The GI50 was > 100 µM (inactive) in the experiment with UO-31; > 100 µM (inactive) with MOLT-4; 58.1 µM (inactive) with HT-29; > 100 µM (inactive) in the experiment on NCI-H460; > 100 µM (inactive) in the experiment on SF-539; > 100 µM (inactive) with DU-145. In addition, the GI50 in the experiment with EKVX is > 100 µM (inactive).
